Laboratory results from patent US20090215782A1, “Use of PDE-5 Inhibitors for Endothelial Repair of Tissues Impaired by Trauma or Disease” (priority 2005, published 2009).

Assays:
[1] = system: circulating endothelial progenitor cells (EPCs); experiment: Concentration of circulating EPCs (CD34/AC133 double positive) in peripheral blood by flow cytometry after oral Vardenafil 20 mg, placebo crossover; format: in vivo, human; details: healthy men, mean±SD
Description: 10 healthy men without cardiovascular risk factors were selected for the study. The ages of the 10 men ranged from 21 to 25 years. Blood samples taken for the purposes of the study were evaluated by flow cytometry, as previously described (Scheubel R. J., Zorn H., Silber R. E., Kuss O., Morawietz H., Holtz J., Simm A. Age-dependent depression in circulating endothelial cell progenitor cells in patients undergoing coronary artery bypass grafting. J Am Coll Cardiol. 42, 2073-2080,2003).
Control samples from each subject were examined to validate the study. The samples were obtained in triplicate, on different days and at different hours of the day and examined. No significant variability was found among the subjects.
Subjects were randomly allocated to two groups of five subjects. The first group received Vardenafil 20 mg on the first visit and a placebo one week later. The second group received the placebo on the first visit and Vardenafil 20 mg one week later. […]
Analysis was performed on a sample of 150 μl of peripheral blood extracted from each subject. […] After incubation, the cells were lysed in NH4Cl lysis buffer, washed twice with PBS 1% FCS and then analysed by flow cytometry.
With reference to FIG. 1, forward and side scatter gates were set to include all viable mononuclear cells; into this gate 500,000 events were acquired. […] Cells were scored using a FACSCalibur analyzer (Becton Dickinson Immunocytometry Systems, San Jose, Calif., USA) and data processing using the CellQuest software programmes (Becton Dickinson Immunocytometry Systems).
The percentage of EPCs, in each subject, was calculated by dividing the number of double positive events by the number of total events. The total number of EPCs per volume, of each subject, per volume was calculated by multiplying the percentage of EPCs with the leukocyte count. The data is expressed as mean±SD. Comparisons of the total number of EPCs at baseline, and at two and four hours after the administration of either Vardenafil 20 mg or the placebo were analyzed by the Student's t-test for matched data. […]

[2] = system: haematological and bone marrow tissues; details: chronic administration; cited from earlier work

Structure (SMILES) | mean increase in EPCs after Vardenafil administration ([1]; four hours after Vardenafil 20 mg vs baseline) | percentage increase of circulating EPCs with respect to baseline ([1]; four hours after Vardenafil 20 mg) | concentration of EPCs ([1]; four hours after administration of Vardenafil 20 mg, baseline 1849.7±384.3, p<0.001) | bone marrow density (indicated by a decrease in adipose tissue percentage) [2] | lymphomonocytic component count [2]
CCCc1nc(C)c2c(=O)[nH]c(-c3cc(S(=O)(=O)N4CCN(CC)CC4)ccc3OCC)nn12 [Vardenafil] | 795.7±176.7 EPCs/Ml | 44.1±16.5% | 2645.4±509.5 EPC/mL |  | 
CCCOc1ccc(S(=O)(=O)NCCC2CCCN2C)cc1-c1nc2c(CCC)nn(C)c2c(=O)[nH]1 (centres unmarked) [DA-8159] |  |  |  | increase | increase
